Among the data in patent US20250340574A1, “MODULATORS OF CYSTIC FIBROSIS TRANSMEMBRANE CONDUCTANCE REGULATOR” (Vertex Pharmaceuticals Incorporated, priority 2022, published 2025) are ring closure, yield after HPLC, Emax and EC50 values, retold here.

As usually defined, the EC50 is the concentration needed to bring the measured effect to its halfway point.

Read-outs that look alike come from different tables or passages of the source.

The conditions of data set [1]: amide bond, 13-membered ring, CDMT/NMM, DMF.
Data set [2] concerns the target T1, CFTR (F508del/MF-HBE cells) (Homo sapiens, UniProt P13569, DEL508-508).
T1 construct: human bronchial epithelial (HBE) cells derived from CF subjects heterozygous for F508del and a minimal function CFTR mutation (F508del/MF-HBE); endogenous in cells; host or cells: Primary human bronchial epithelial cells from CF subjects (F508del/MF genotype), differentiated at an air-liquid interface
The data set is described as follows: Ussing chamber assay of CFTR-mediated short-circuit currents, Assay A (0.1 μM to 25 μM, 6 concentrations). In kind it is cell-based. The note with it: with 33 nM potentiator and 18 μM Tezacaftor, 20% human serum; for Emax: 18-24 hours, read-out: A Max activity (%). In outline:
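Short-circuit current was recorded at 37 °C under voltage clamp (0 mV) with amiloride 30 μM apically, forskolin 20 μM activation, then BPO/GlyH-101/inh-172 (20 μM each) to isolate CFTR current. Before recording, corrector exposure lasted 18–24 h with 18 μM tezacaftor, 20% human serum, and 33 nM (dose–response) or 44 nM (1 μM fixed) potentiator, maintained throughout.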

The target in data set [3] is T1, CFTR (F508del/MF-HBE cells). The data set is described as follows: Ussing chamber assay of CFTR-mediated short-circuit currents, Assay B (0.00001 μM to 25 μM, 12 concentrations). The note with it: with 33 nM potentiator and 18 μM Tezacaftor, 20% human serum; for Emax: 18-24 hours, read-out: B Max activity (%). In kind it is cell-based. The procedure:
Ussing chamber experiments were performed using human bronchial epithelial (HBE) cells derived from CF subjects heterozygous for F508del and a minimal function CFTR mutation (F508del/MF-HBE) and cultured as previously described (Neuberger T, Burton B, Clark H, Van Goor F Methods Mol Biol 2011:741:39-54). After four days the apical media was removed, and the cells were grown at an air liquid interface for >14 days prior to use.
To isolate the CFTR-mediated short-circuit (ISC) current, F508del/MF-HBE grown on Costar® Snapwell™ cell culture inserts were mounted in an Ussing chamber and the transepithelial ISC was measured under voltage-clamp recording conditions (Vhold=0 mV) at 37° C. The basolateral solution contained (in mM) 145 NaCl, 0.83 K2HPO4, 3.3 KH2PO4, 1.2 MgCl2, 1.2 CaCl2, 10 Glucose, 10 HEPES (pH adjusted to 7.4 with NaOH) and the apical solution contained (in mM) 145 NaGluconate, 1.2 MgCl2, 1.2 CaCl2, 10 glucose, 10 HEPES (pH adjusted to 7.4 with NaOH) and 30 μM amiloride to block the epithelial sodium channel. Forskolin (20 μM) was added to the apical surface to activate CFTR, followed by apical addition of a CFTR inhibitor cocktail consisting of BPO, GlyH-101, and CFTR inhibitor 172 (each at 20 μM final assay concentration) to specifically isolate CFTR currents. The CFTR-mediated ISC (μA/cm^2) for each condition was determined from the peak forskolin response to the steady-state current following inhibition.
The activity of the CFTR corrector compounds on the CFTR-mediated ISC was determined in Ussing chamber studies as described above. The F508del/MF-HBE cell cultures were either incubated with the corrector compounds at a range of concentrations in combination with 33 nM (6R,12R)-17-amino-12-methyl-6,15-bis(trifluoromethyl)-13,19-dioxa-3,4,18-triazatricyclo[12.3.1.12,5]nonadeca-1(18),2,4,14,16-pentaen-6-ol and 18 μM Tezacaftor or were incubated with the corrector compounds at a single fixed concentration of 1 μM in combination with 44 nM (6R,12R)-17-amino-12-methyl-6,15-bis(trifluoromethyl)-13,19-dioxa-3,4,18-triazatricyclo[12.3.1.12,5]nonadeca-1(18),2,4,14,16-pentaen-6-ol and 18 μM Tezacaftor for 18-24 hours at 37° C. and in the presence of 20% human serum. The concentration of corrector compounds with 44 nM or 33 nM (6R,12R)-17-amino-12-methyl-6,15-bis(trifluoromethyl)-13,19-dioxa-3,4,18-triazatricyclo[12.3.1.12,5]nonadeca-1(18),2,4,14,16-pentaen-6-ol and 18 μM Tezacaftor during the 18-24 hours incubations was kept constant throughout the Ussing chamber measurement of the CFTR-mediated ISC to ensure compounds were present throughout the entire experiment. The efficacy and potency of the putative F508del correctors was compared to that of the known Vertex corrector, (14S)-8-[3-(2-{Dispiro[2.0.2.1]heptan-7-yl}ethoxy)-1H-pyrazol-1-yl]-12,12-dimethyl-2λ^6-thia-3,9,11,18,23-pentaazatetracyclo[17.3.1.111,14.05,10]tetracosa-1(22),5,7,9,19(23),20-hexaene-2,2,4-trione, in combination with 18 μM Tezacaftor and 1 μM Ivacaftor.
• Assay A: 0.1 μM to 25 μM, 6 concentrations • Assay B: 0.00001 μM to 25 μM, 12 concentrations • Assay C: 0.026 μM to 25 μM, 6 concentrations • Assay D: Activity at single concentration of 1 μM

T1 sequence (P13569 with tags, fused parts or gaps DEL508-508): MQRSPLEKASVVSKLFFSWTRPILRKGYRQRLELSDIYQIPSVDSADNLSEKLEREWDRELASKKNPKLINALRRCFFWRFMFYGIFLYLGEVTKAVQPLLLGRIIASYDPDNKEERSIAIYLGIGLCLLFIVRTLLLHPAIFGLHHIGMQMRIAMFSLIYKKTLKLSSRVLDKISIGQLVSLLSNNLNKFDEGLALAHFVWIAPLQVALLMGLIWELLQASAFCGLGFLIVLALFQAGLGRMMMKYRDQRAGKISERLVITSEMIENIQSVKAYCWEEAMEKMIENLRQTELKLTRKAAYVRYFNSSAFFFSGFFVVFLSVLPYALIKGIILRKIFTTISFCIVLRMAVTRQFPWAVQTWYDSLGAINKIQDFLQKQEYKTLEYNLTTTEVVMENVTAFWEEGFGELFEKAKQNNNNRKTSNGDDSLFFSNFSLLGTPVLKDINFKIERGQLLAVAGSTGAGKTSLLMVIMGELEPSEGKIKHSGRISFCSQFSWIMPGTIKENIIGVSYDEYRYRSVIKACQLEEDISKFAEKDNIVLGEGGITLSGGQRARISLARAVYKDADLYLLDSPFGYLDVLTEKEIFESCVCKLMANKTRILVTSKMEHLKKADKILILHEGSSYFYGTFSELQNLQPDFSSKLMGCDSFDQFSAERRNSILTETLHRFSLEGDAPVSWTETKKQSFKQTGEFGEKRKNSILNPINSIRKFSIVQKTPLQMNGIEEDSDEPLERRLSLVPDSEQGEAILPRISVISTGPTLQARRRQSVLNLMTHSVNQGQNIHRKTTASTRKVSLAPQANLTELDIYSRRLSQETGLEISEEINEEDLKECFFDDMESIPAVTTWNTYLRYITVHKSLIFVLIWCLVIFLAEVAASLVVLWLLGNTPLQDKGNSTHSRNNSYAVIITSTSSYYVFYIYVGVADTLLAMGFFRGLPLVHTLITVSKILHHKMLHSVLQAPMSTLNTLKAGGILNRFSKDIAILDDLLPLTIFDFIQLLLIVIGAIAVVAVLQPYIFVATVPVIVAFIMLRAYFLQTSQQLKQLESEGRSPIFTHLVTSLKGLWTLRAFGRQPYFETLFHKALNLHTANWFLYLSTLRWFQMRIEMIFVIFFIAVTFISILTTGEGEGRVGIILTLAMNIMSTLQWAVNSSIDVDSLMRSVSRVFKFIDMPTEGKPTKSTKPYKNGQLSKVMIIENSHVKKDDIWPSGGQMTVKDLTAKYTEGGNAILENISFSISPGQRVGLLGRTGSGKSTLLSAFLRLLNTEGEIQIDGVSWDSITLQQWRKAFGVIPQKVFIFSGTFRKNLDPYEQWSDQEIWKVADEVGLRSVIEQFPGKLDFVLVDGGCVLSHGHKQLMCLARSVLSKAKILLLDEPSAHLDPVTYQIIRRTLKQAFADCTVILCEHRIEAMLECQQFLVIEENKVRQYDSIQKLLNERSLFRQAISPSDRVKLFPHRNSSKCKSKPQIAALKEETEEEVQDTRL

Regarding `Cc1cccc(C)c1-c1cc2nc(n1)NS(=O)(=O)c1cccc(c1)C(=O)N(Cc1cnc3oc(C(C)C)cc3n1)C(CCC(C)(C)F)CO2` (stereo not drawn), in data set [1] (from Cc1cccc(C)c1-c1cc(OCC(CCC(C)(C)F)NCc2cnc3oc(C(C)C)cc3n2)nc(NS(=O)(=O)c2cccc(C(=O)O)c2)n1, 35.1 mM, 16.0 h), the ring closure, yield after HPLC was found to be 65%.
The molecule “(5P,11R)-7-methyl-6-[2-methyl-6-(2-methylpropyl)phenyl]-12-({5-methyl-6-[1-(trifluoromethyl)cyclopropyl]-5H-pyrrolo[2,3-b]pyrazin-3-yl}methyl)-11-[(propan-2-yloxy)methyl]-9-oxa-2λ^6-thia-3,5,12,19-tetraazatricyclo[12.3.1.1∧{4,8}]nonadeca-1(18),4(19),5,7,14,16-hexaene-2,2,13-trione” had a ring closure, yield after HPLC in data set [1] (13.9 mM, 25.0 °C) of 65%.
Take `Cc1cccc(C)c1-c1cc2nc(n1)NS(=O)(=O)c1cccc(c1)C(=O)N(Cc1cnc3cc(C(C)(C)C)n(C)c3n1)[C@H](C1CCCO1)CO2` (single isomer, unassigned; isomer a): in data set [1] (from Cc1cccc(C)c1-c1cc(OC[C@H](NCc2cnc3cc(C(C)(C)C)n(C)c3n2)C2CCCO2)nc(NS(=O)(=O)c2cccc(C(=O)O)c2)n1, 13.2 mM, 25.0 °C, 20.0 h), the ring closure, yield after HPLC was determined as 53%.
`Cc1cccc(C)c1-c1cc2nc(n1)NS(=O)(=O)c1cccc(c1)C(=O)N(Cc1cnc3oc(C(C)(C)COCc4ccccc4)cc3n1)[C@H](CC13CC(C1)C3)CO2`: in data set [1] (from Cc1cccc(C)c1-c1cc(OC[C@@H](CC23CC(C2)C3)NCc2cnc3oc(C(C)(C)COCc4ccccc4)cc3n2)nc(NS(=O)(=O)c2cccc(C(=O)O)c2)n1, 31.3 mM, 16.0 h), the ring closure, yield after HPLC worked out at 69%.
Consider “(6P,11S)-12-({6-tert-butyl-5-methyl-5H-pyrrolo[2,3-b]pyrazin-3-yl}methyl)-7-methyl-6-[2-methyl-6-(2-methylpropyl)phenyl]-11-[(trifluoromethoxy)methyl]-9-oxa-2λ^6-thia-3,5,12,19-tetraazatricyclo[12.3.1.1∧{4,8}]nonadeca-1(17),4,6,8(19),14(18),15-hexaene-2,2,13-trione”, for which, in data set [1] (8.87 mM, 25.0 °C), the ring closure, yield after HPLC turned out to be 36%.
Molecule `Cc1cccc(C)c1-c1cc2nc(n1)NS(=O)(=O)c1cccc(c1)C(=O)N(Cc1ccn3nc(C(C)C)cc3n1)[C@H](CC1(C)CC1)CO2` showed a ring closure, yield after HPLC in data set [1] (from Cc1cccc(C)c1-c1cc(OC[C@@H](CC2(C)CC2)NCc2ccn3nc(C(C)C)cc3n2)nc(NS(=O)(=O)c2cccc(C(=O)O)c2)n1, 9.91 mM, 25.0 °C, 16.5 h) of 43%.
In data set [1] (9.74 mM), “(5P,11R)-6-[2-(cyclopentylmethyl)-6-methylphenyl]-11-(2,2-dimethylpropyl)-7-methyl-12-{[5-methyl-6-(propan-2-yl)-5H-pyrrolo[2,3-b]pyrazin-3-yl]methyl}-9-oxa-2λ^6-thia-3,5,12,19-tetraazatricyclo[12.3.1.1∧{4,8}]nonadeca-1(17),4(19),5,7,14(18),15-hexaene-2,2,13-trione” gave a ring closure, yield after HPLC of 45%.
Take `Cc1cccc(C)c1-c1cc2nc(n1)NS(=O)(=O)c1cccc(c1)C(=O)N(Cc1cnc3oc(C4(C)CC4)cc3n1)[C@H](CC13CC(C1)C3)CO2` [Compound I-97]: in data set [2], the Emax is greater than 60% and the EC50 was less than 1000 nM. Besides, in data set [3], the Emax was greater than 60% and the EC50 fell in the range of 1000 to 3000 nM.
Regarding “(5P,11R)-11-({bicyclo[1.1.1]pentan-1-yl}methyl)-12-({6-tert-butyl-5-methyl-5H-pyrrolo[2,3-b]pyrazin-3-yl}methyl)-7-methyl-6-[2-methyl-6-(2-methylpropyl)phenyl]-9-oxa-2λ^6-thia-3,5,12,19-tetraazatricyclo[12.3.1.1∧{4,8}]nonadeca-1(17),4(19),5,7,14(18),15-hexaene-2,2,13-trione”, the ring closure, yield after HPLC in data set [1] (22.6 mM, 25.0 °C) is 76%.
The molecule “(5P,11R)-12-({6-tert-butyl-5-methyl-5H-pyrrolo[2,3-b]pyrazin-3-yl}methyl)-11-(2,2-dimethylpropyl)-7-methyl-6-[2-methyl-6-(2-methylpropyl)phenyl]-9-oxa-2λ^6-thia-3,5,12,19-tetraazatricyclo[12.3.1.1∧{4,8}]nonadeca-1(17),4(19),5,7,14(18),15-hexaene-2,2,13-trione” showed a ring closure, yield after HPLC in data set [1] (14.0 mM) of 61%.
On to `Cc1cccc(C)c1-c1cc2nc(n1)NS(=N)(=O)c1cccc(c1)C(=O)N(Cc1cnc3oc(C4CC4)cc3n1)[C@H](CC(C)(C)C)CO2` (single isomer, unassigned; isomer a), for which, in data set [1] (from 3-[[[4-[(2R)-2-[(6-Cyclopropylfuro[2,3-b]pyrazin-2-yl)methylamino]-4,4-dimethyl-pentoxy]-6-(2,6-dimethylphenyl)pyrimidin-2-yl]amino]sulfonimidoyl]benzoic acid (hydrochloride salt) (isomer A), 14.2 mM), the ring closure, yield after HPLC stood at 23%.
For the molecule `Cc1cccc(C)c1-c1cc2nc(n1)NS(=O)(=O)c1cccc(c1)C(=O)N(Cc1cnc3oc(C(C)C)cc3n1)[C@H](CC1CCC1)CO2` [Compound I-56], in data set [2], the Emax was greater than 60% and the EC50 is less than 1000 nM. Besides, in data set [3], the Emax is greater than 60% and the concentration giving a half-maximal response (EC50) lay within 1000 to 3000 nM.
As to `Cc1cccc(C)c1-c1cc2nc(n1)NS(=O)(=O)c1cccc(c1)C(=O)N(Cc1cnc3cc(C(C)(C)C)n(C)c3n1)[C@H](C1CCCO1)CO2` (single isomer, unassigned; isomer b), in data set [1] (from Cc1cccc(C)c1-c1cc(OC[C@H](NCc2cnc3cc(C(C)(C)C)n(C)c3n2)C2CCCO2)nc(NS(=O)(=O)c2cccc(C(=O)O)c2)n1, 15.5 mM, 25.0 °C, 20.0 h), the ring closure, yield after HPLC is 55%.
As for `Cc1cccc(C)c1-c1cc2nc(n1)NS(=O)(=O)c1cccc(c1)C(=O)N(Cc1nc3cc(C(C)C)oc3cc1F)[C@H](CC13CC(C1)C3)CO2` [Compound I-89], in data set [2], the Emax is greater than 60% and the EC50 was less than 1000 nM. Moreover, in data set [3], the Emax was greater than 60% and the EC50 lay within 1000 to 3000 nM.
As to `Cc1cccc(C)c1-c1cc2nc(n1)NS(=O)(=O)c1cccc(c1)C(=O)N(Cc1cnc3oc(C4CC4)cc3n1)C(CCC1(C)CC1)CO2` (single isomer, unassigned) [Compound I-71, 12-[(6-cyclopropylfuro[2,3-b]pyrazin-2-yl)methyl]-6-(2,6-dimethylphenyl)-11-[2-(1-methylcyclopropyl)ethyl]-2,2-dioxo-9-oxa-2λ^6-thia-3,5,12,19-tetrazatricyclo[12.3.1.14,8]nonadeca-1(18),4(19),5,7,14,16-hexaen-13-one], the Emax in data set [2] and in data set [3] was greater than 60% throughout. For the same molecule, the EC50 is less than 1000 nM in data set [2] and 3000 to 30000 nM in data set [3].
